Measurements from patent US20190099523A1, “FILM-FORMING COMPOSITION FOR A PH-DEPENDANT SUSTAINED RELEASE OF THE ACTIVE AGENT” (YISSUM RESEARCH DEVELOPMENT COMPANY OF THE HEBREW …, priority 2011, published 2019).
Blank lines part the entries; values can stand above or below the compound they belong to.

Columns and labels:
Type in all cases: physicochemical
[1] = CHX release rate from films; conditions: CHX-1 film; phosphate buffer, 37° C., 1-8 hours; FIG. 3
Protocol: Determining the CHX release rate from the films was conducted by first placing the films in 100 ml glass vessels, containing phosphate buffer at pH=5.0 and 6.8 and 50 cpm, at 37° C.
Then, 1 cc samples were taken from the glass vessels at pre-determined intervals (each hour from 1 to 8 hrs).
The released CHX concentration was measured spectrophotometrically at 260 nm (Uvikon 933: Kontron Instruments). The concentration of the CHX was calculated according to a reference curve.
(§1) In a different experiment, the films were kept at a pH 5.0 buffer for 2 hours, then at a pH 6.8 buffer for 2 hours, then at a pH 5.0 buffer for 2 hours and again at a pH 6.8 buffer for 2 hours. Samples were taken at similar intervals.

[2] = Clotrimazole release rate from films; conditions: Clotrimazole-1 film
Protocol: Determining the clotrimazole release rate from the films was conducted by first placing the films in 350 ml glass vessels, containing Trizma base buffer (50 mM) with 0.2% SLS (sodium lauryl sulphate) at pH=5.0 and 6.8 and 50 cpm, at 37° C.
(§2) Then, 1 cc samples were taken from the glass vessels at pre-determined intervals (each hour from 1 to 8 hrs). The released clotrimazole concentration was measured spectrophotometrically at 206 nm (Uvikon 933: Kontron Instruments). The concentration of the CHX was calculated according to a reference curve.
In a different experiment, the films were kept at a pH 5.0 buffer for 2 hours, then kept at a pH 6.8 buffer for 2 hours, then at a pH 5.0 buffer for 2 hours and again at a pH 6.8 buffer for 2 hours. Samples were taken at similar intervals.

[3] = Triclosane release rate from films; conditions: Tric-1 film; Trizma base buffer 50 mM +10% SLS, 37° C.; pH 5.0 / 6.8 / 5.0 / 6.8, 2 hours each; FIG. 6
Protocol: Determining the triclosane release rate from the films was conducted by first placing the films in 100 ml glass vessels, containing Trizma base buffer (50 mM, +10% SLS (sodium lauryl sulphate) at pH=5.0 and 6.8 at 50 rpm, at 37° C.
as §2, with “Then, 2” for “Then, 1”, “released triclosane” for “released clotrimazole”, “at 280” for “at 206”, “the triclosane” for “the CHX”
as §1

CHX release rate (as % of the initial amount in film), pH 5.0 compared with pH 6.8 [1]: higher release rate at pH 5.0
SMILES: CC(=O)O.CC(=O)O.NC(=N\CCCCCC/N=C(N)/N=C(\N)Nc1ccc(Cl)cc1)/N=C(\N)Nc1ccc(Cl)cc1 [CHX, Chlorhexidine-Diacetate]

clotrimazole release rate (as % of the initial amount in film), pH 5.0 compared with pH 6.8 ([2]; Trizma base buffer 50 mM with 0.2% SLS, 37° C., 1-8 hours, FIG. 1): much faster
effect of pH 6.8 on clotrimazole release rate, pH change profile ([2]; pH 5.0 / 6.8 / 5.0 / 6.8, 2 hours each, FIG. 2): retards the rate of release
SMILES: Clc1ccccc1C(c1ccccc1)(c1ccccc1)n1ccnc1 [clotrimazole, Clotrimazole]

SMILES: Oc1cc(Cl)ccc1Oc1ccc(Cl)cc1Cl [triclosane, Triclosane]
triclosane release rate at pH 5.0 compared with pH 6.8, pH change profile [3]: significantly faster
